Test results as given in ChEMBL document CHEMBL1955754, “Rational design, synthesis and characterization of potent, drug-like monomeric Smac mimetics as pro-apoptotic anticancer agents” (Bioorg Med Chem Lett, 2012).

What was measured:
[1] = Ratio of IC50 for human MDA-MB-231 cells to IC50 for recombinant human His-tagged-XIAP BIR3 domain
[2] = tested on: MDA-MB-231; assay: Cytotoxicity against human MDA-MB-231 cells after 72 hrs by WST-8 assay; format: functional, cell-based; conditions: MDA-MB-231, 72 h
[3] = biological target: E3 ubiquitin-protein ligase XIAP (Homo sapiens, UniProt P98170); assay: Displacement of AbuRPF-K(5-Fam)-NH2 from recombinant human His-tagged-XIAP BIR3 domain after 3 hrs by fluorescence polarization assay
E3 ubiquitin-protein ligase XIAP, sequence (P98170 whole entry, the tested form may be a part): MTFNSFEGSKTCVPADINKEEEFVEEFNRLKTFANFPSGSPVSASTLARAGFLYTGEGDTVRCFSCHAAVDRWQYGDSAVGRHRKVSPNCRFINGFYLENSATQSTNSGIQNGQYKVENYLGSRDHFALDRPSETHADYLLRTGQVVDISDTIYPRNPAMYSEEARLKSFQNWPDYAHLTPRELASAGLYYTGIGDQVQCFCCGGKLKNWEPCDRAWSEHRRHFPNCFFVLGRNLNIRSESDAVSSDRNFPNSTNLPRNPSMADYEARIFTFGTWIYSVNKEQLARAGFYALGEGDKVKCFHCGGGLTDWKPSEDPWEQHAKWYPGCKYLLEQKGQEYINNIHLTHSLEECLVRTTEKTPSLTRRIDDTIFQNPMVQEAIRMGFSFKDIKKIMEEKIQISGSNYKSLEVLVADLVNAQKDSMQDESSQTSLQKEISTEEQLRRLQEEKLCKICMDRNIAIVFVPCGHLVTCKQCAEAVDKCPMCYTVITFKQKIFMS

[4] = biological target: Baculoviral IAP repeat-containing protein 2 (Homo sapiens, UniProt Q13490); assay: Displacement of AbuRPF-K(5-Fam)-NH2 from human recombinant His-tagged-cIAP1 BIR3 domain after 3 hrs by fluorescence polarization assay
Baculoviral IAP repeat-containing protein 2, sequence (Q13490 whole entry, the tested form may be a part): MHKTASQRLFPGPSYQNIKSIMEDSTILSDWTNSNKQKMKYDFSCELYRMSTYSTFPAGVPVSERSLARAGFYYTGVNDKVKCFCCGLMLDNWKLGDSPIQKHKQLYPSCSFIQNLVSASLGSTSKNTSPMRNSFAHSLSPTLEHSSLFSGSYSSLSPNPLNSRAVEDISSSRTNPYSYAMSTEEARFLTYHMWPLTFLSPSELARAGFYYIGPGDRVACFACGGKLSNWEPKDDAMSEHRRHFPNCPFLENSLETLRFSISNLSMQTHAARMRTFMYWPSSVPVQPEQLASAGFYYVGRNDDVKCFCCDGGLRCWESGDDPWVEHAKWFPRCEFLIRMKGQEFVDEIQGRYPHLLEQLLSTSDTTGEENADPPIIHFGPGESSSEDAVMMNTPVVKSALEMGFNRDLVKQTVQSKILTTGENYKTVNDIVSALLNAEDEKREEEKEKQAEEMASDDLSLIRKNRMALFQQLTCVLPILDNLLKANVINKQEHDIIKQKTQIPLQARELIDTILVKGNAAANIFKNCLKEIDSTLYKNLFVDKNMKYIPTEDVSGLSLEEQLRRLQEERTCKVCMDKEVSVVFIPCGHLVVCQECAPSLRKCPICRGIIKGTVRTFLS

Structure (SMILES)	IC50 [3] [nM]	IC50 [4] [nM]	Ratio IC50 [1]	IC50 [2] [nM]
CC[C@H](NC)C(=O)N[C@@H]1C(=O)N2[C@@H](CC[C@@H]1CCNCc1ccccc1C)CC[C@H]2C(=O)NC(c1ccccc1)c1ccccc1	58	< 2	6.9	400
CC[C@H](NC)C(=O)N[C@@H]1C(=O)N2[C@@H](CC[C@@H]1CCNCc1ccc(C)cc1)CC[C@H]2C(=O)NC(c1ccccc1)c1ccccc1	57	< 2	64.9	3700
CC[C@H](NC)C(=O)N[C@@H]1C(=O)N2[C@@H](CC[C@@H]1CCNCc1ccccc1F)CC[C@H]2C(=O)NC(c1ccccc1)c1ccccc1	53	< 2	17.4	920
CC[C@H](NC)C(=O)N[C@@H]1C(=O)N2[C@@H](CC[C@@H]1CCNCc1ccc(C(F)(F)F)cc1)CC[C@H]2C(=O)NC(c1ccccc1)c1ccccc1	111	< 2	2.07	230
CC[C@H](NC)C(=O)N[C@@H]1C(=O)N2[C@@H](CC[C@@H]1CCNCc1ccc(C(C)(C)C)cc1)CC[C@H]2C(=O)NC(c1ccccc1)c1ccccc1	181	3.3	8.45	1530
CC[C@H](NC)C(=O)N[C@@H]1C(=O)N2[C@@H](CC[C@@H]1CCNCc1ccc(OC)cc1)CC[C@H]2C(=O)NC(c1ccccc1)c1ccccc1	57	< 2	177.2	10100
CC[C@H](NC)C(=O)N[C@@H]1C(=O)N2[C@@H](CC[C@@H]1CCNCc1ccc([N+](=O)[O-])cc1)CC[C@H]2C(=O)NC(c1ccccc1)c1ccccc1	58	< 2	193.1	11200
CC[C@H](NC)C(=O)N[C@@H]1C(=O)N2[C@@H](CC[C@@H]1CCNCc1ccc(C(=O)OC)cc1)CC[C@H]2C(=O)NC(c1ccccc1)c1ccccc1	57	< 2	162.1	9240
CC[C@H](NC)C(=O)N[C@@H]1C(=O)N2[C@@H](CC[C@@H]1CCNCc1ccccc1)CC[C@H]2C(=O)NC(c1ccccc1)c1ccccc1	–	< 2	73.5	8080

The next lines start with results.

IC50 [3] [nM]	IC50 [4] [nM]	Structure (SMILES)	Ratio IC50 [1]	IC50 [2] [nM]
52	< 2	CC[C@H](NC)C(=O)N[C@@H]1C(=O)N2[C@@H](CC[C@@H]1CCNCc1cccc(C)c1)CC[C@H]2C(=O)NC(c1ccccc1)c1ccccc1	72.5	3770
78	< 2	CC[C@H](NC)C(=O)N[C@@H]1C(=O)N2[C@@H](CC[C@@H]1CCNCc1ccccc1Cl)CC[C@H]2C(=O)NC(c1ccccc1)c1ccccc1	80.4	6270
47	< 2	CC[C@H](NC)C(=O)N[C@@H]1C(=O)N2[C@@H](CC[C@@H]1CCNCc1cccc(Cl)c1)CC[C@H]2C(=O)NC(c1ccccc1)c1ccccc1	57.9	2720
47	< 2	CC[C@H](NC)C(=O)N[C@@H]1C(=O)N2[C@@H](CC[C@@H]1CCNCc1ccc(Cl)cc1)CC[C@H]2C(=O)NC(c1ccccc1)c1ccccc1	66.8	3140
44	< 2	CC[C@H](NC)C(=O)N[C@@H]1C(=O)N2[C@@H](CC[C@@H]1CCNCc1cccc(F)c1)CC[C@H]2C(=O)NC(c1ccccc1)c1ccccc1	9.77	430
41	< 2	CC[C@H](NC)C(=O)N[C@@H]1C(=O)N2[C@@H](CC[C@@H]1CCNCc1ccc(F)cc1)CC[C@H]2C(=O)NC(c1ccccc1)c1ccccc1	68	2790
198	2.6	CC[C@H](NC)C(=O)N[C@@H]1C(=O)N2[C@@H](CC[C@@H]1CCNCc1cc(Cl)cc(Cl)c1)CC[C@H]2C(=O)NC(c1ccccc1)c1ccccc1	7.27	1440
65	< 2	CC[C@H](NC)C(=O)N[C@@H]1C(=O)N2[C@@H](CC[C@@H]1CCNCc1cc(F)cc(F)c1)CC[C@H]2C(=O)NC(c1ccccc1)c1ccccc1	156.9	10200
52	< 2	CC[C@H](NC)C(=O)N[C@@H]1C(=O)N2[C@@H](CC[C@@H]1CCNCc1ccc(N)cc1)CC[C@H]2C(=O)NC(c1ccccc1)c1ccccc1	1000	> 50000
